Entries after “also recorded” stand apart in the source; their conditions may differ.
Assays:
[1] = system: patients with PD and constipation; test: Phase 2 trial Stage 1: bowel (prokinetic) response to single escalating oral doses; assay type: in vivo, human; conditions: Stage 1, single oral dose
Description: Following successful screening, all subjects underwent a 14-day run-in period where the degree of constipation was assessed through a validated daily log (Zinsmeister et al. 2013) establishing baseline CSBMs/week. Subjects with an average of <3 CSBMs/week proceeded to dosing.
Tolerability limits included diarrhea or vomiting.

[2] = system: patients with PD and constipation; test: Phase 2 trial, all dosed patients (Stage 1 and 2): adverse events; assay type: in vivo, human
Description: Fifty patients were enrolled and 44 were dosed. In Stage 1, 10 patients were dosed, 1 (10%) withdrew prior to completion and 9 (90%) completed dosing. In stage 2, 6 (15%) patients had ≥3 CSBM/week at the end of the run-in period and were excluded, 34 patients were dosed and bowel response was assessable in 31 (91%). Two patients (5.8%) were terminated prior to completion because of recurrent dizziness, and 3 others withdrew during dosing (8.8%): 2 because of diarrhea and 1 because of holiday. Fifteen patients were randomized.
Most AEs were confined to the GI tract (88% in Stage 1 and 63% in Stage 2). The most common AE was nausea which occurred in 4/10 (40%) patients in Stage 1 and in 18/34 (52.9%) in Stage 2 (Table 2). Diarrhea occurred in 4/10 (40%) patients in Stage 1 and 15/34 (44%) in Stage 2. One patient withdrew because of recurrent diarrhea. Other GI related AEs included abdominal pain 11/44 […], flatulence 3/44 (6.8%), vomiting 3/44 (6.8%), worsening of acid reflux 2/44 (4.5%), and worsening of hemorrhoids 1/44 (2.2%). […] The only other noteworthy AE was dizziness 8/44 (18%). Dizziness was graded as moderate in one patient who was receiving an alpha-adrenergic blocking agent (Terazosin). This patient was withdrawn from the study and recovered spontaneously.

[3] = Pharmacokinetics of orally administered squalamine (ENT-01) in Stage 1; assay type: in vivo, human
Description: PK data were collected on the 10 patients enrolled in Stage 1 and 10 patients enrolled in Stage 2 to determine the extent of systemic absorption. In Stage 1, PK data were obtained at each visit, pre-medication, at 1, 2, 4, 8 and 24 hours (Table 10). In Stage 2, PK was measured on days 1 and 6 of the randomization period pre-medication, at 1, 2, 4 and 8 hours (Table 11).
The mean Cmax, Tmax and T1/2 and AUC of the squalamine ion following squalamine (ENT-01) oral dosing for Stage 1 patients. The PK analyses are only approximate, as the lower limit of the validated concentration range was 10 ng/ml; most of the measured concentrations fell below that value. The mean Cmax, Tmax and T1/2 and AUC of the squalamine ion following squalamine (ENT-01) oral dosing for Stage 2 patients. The PK analyses are only approximate, as the lower limit of the validated concentration range was 0.5 ng/ml.

[4] = system: patients with PD and constipation; test: Circadian rhythm of wrist skin temperature; assay type: in vivo, human; conditions: for circadian rhythm of skin temperature / markers of healthy circadian function: oral, 12 evaluable patients
Description: Assessments were made at baseline and at the end of the fixed dose and washout periods. Circadian system status was evaluated by continuously monitoring wrist skin temperature (Thermochron iButton DS1921H; Maxim, Dallas) following published procedures (Sarabia et al. 2008).
Circadian rhythm of skin temperature was evaluable in 12 patients (i.e., those who had recordings that extended from baseline through washout). Circadian system functionality was evaluated by continuously monitoring wrist skin temperature using a temperature sensor (Thermochron iButton DS1921H; Maxim, Dallas, Tex.) (Sarabia et al. 2008). A nonparametric analysis was performed for each participant to characterize DST as previously described (Sarabia et al. 2008; Ortiz-Tudela et al. 2010).
Briefly, this analysis includes the following parameters: (i) the inter-daily stability (the constancy of 24-hour rhythmic pattern over days, IS); (ii) intra-daily variability (rhythm fragmentation, IV); (iii) average of 10-minute intervals for the 10 hours with the minimum temperature (L10); (iv) average of 10-minute intervals for the 5 hours with the maximum temperature (M5) and the relative amplitude (RA), which was determined by the difference between M5 and L10, divided by the sum of both. Finally, the Circadian Function Index (CFI) was calculated by integrating IS, IV, and RA. Consequently, CFI is a global measure that oscillates between 0 for the absence of circadian rhythmicity and 1 for a robust circadian rhythm (Ortiz-Tudela et al. 2010).

[5] = Preclinical oral dosing in dogs; assay type: in vivo
Solubility in water = assay type: physicochemical
αS [6] = target: T1, αS (Homo sapiens, UniProt P37840); conditions: in vitro (Perni et al. 2017); cited from earlier work
C. elegans model of PD = conditions: in vivo, C. elegans (Perni et al. 2017); cited from earlier work
αS [7] = target: T1, αS; conditions: in vitro; cited from earlier work

CC(C)[C@@H](CC[C@@H](C)[C@H]1CC[C@H]2[C@@H]3[C@H](O)C[C@H]4C[C@@H](NCCCNCCCCN)CC[C@]4(C)[C@H]3CC[C@]12C)OS(=O)(=O)O (single isomer, unassigned) [squalamine (ENT-01), squalamine]
cumulative response rate (CSBM within 24 hours of dosing) ([1]; 25 mg): 25%
cumulative response rate (CSBM within 24 hours of dosing) ([1]; 200 mg (maximum)): 80%
patients with worsening of hemorrhoids ([2]; 1/44 dosed patients): 2.2%
patients with worsening of acid reflux ([2]; 2/44 dosed patients): 4.5%
patients with flatulence ([2]; 3/44 dosed patients): 6.8%
patients with vomiting ([2]; 3/44 dosed patients): 6.8%
patients with dizziness ([2]; 8/44 dosed patients): 18%
AUC0-8 hr ([3]; Stage 1, oral 50 mg, 10 patients): 18.5 ng·h/mL
AUC0-8 hr ([3]; Stage 1, oral 100 mg, 9 patients): 29.6 ng·h/mL
AUC0-8 hr ([3]; Stage 1, oral 200 mg, 6 patients): 78.3 ng·h/mL
T1/2 ([3]; Stage 1, oral 200 mg, n = 5): 9.0 (5) hours
approximate oral bioavailability ([3]; Stage 1, oral dosing up to 200 mg, compared with prior phase 1 IV data): about 0.1%
bioavailability ([3]; human, plasma, oral, PD patients, estimated from pharmacokinetic behavior of intravenously administered squalamine in prior clinical studies): < 0.3%
relative amplitude (RA) ([4]; fixed dose vs baseline, p=0.001): increasing
circadian function index (CFI) ([4]; fixed dose vs baseline, p=0.016): increasing
rhythm stability (inter-daily stability, IS) ([4]; fixed dose vs baseline, p=0.026): increasing
rhythm fragmentation (intra-daily variability, IV) ([4]; fixed dose vs baseline, p=0.031): reducing
circadian rhythm of skin temperature / markers of healthy circadian function ([4]; fixed dose vs baseline): significant positive impact on the circadian rhythm of skin temperature; also recorded: improved all markers of healthy circadian function
circadian rhythm of skin temperature / markers of healthy circadian function ([4]; fixed dose vs baseline, listed as aminosterol): improved all markers of healthy circadian function
circadian parameters during wash-out period ([4]; wash-out vs baseline (IS, CFI), 12 patients): improvement persisted for several of these circadian parameters
bioavailability [5]: limited bioavailability
tolerability [5]: well tolerated
oral bioavailability ([5]; preclinical studies): about 0.1%
solubility in water (Solubility in water; neutral pH): weakly soluble
dissolution in water (Solubility in water; pH<3.5 (the pH of gastric fluid)): readily dissolves
formation of aggregates of αS (αS [6]): inhibit the formation of aggregates of αS
formation of aggregates of αS (C. elegans model of PD): inhibit the formation of aggregates of αS
displacement of αS from membranes (αS [7]): can displace αS from membranes

From patent publication US20200038412A1, “METHODS OF TREATING ALZHEIMER'S DISEASE USING AMINOSTEROL COMPOSITIONS” (Enterin, Inc., priority 2018, published 2020)
